# Values joined by “and” are separate entries in the source; they are usually repeats but may differ in a detail not shown here. Identical values can stand only once. Records with an inconclusive call do not appear.
# Tested on: BDF1 mice, s.c. Lewis lung carcinoma, T/C %
# Test: NCI In Vivo Anticancer Drug Screen. Data for tumor model Lewis Lung Carcinoma (subcutaneous) in B6D2F1 (BDF1) mice
# Protocol: The antitumor activity of compounds was measured in mice bearing transplantable tumors. Survival or tumor size were measured and the results are expressed as the measurement made in the treated group (T) divided by the measurement made in the vehicle treated control group (C). The tumor model used in this assay is Lewis Lung Carcinoma (subcutaneous) in B6D2F1 (BDF1) mice
# [1] = endpoint: mean tumor weight, dose: 200.0 mg/kg/injection, schedule: Q01DX011 (ip), vehicle: carboxymethylcellulose (CMC), higher = larger tumour
# [2] = endpoint: median survival time, dose: 2.5 mg/kg/injection, schedule: Q01DX009 (ip), vehicle: saline, higher = longer survival
# [3] = endpoint: median survival time, dose: 6.25 mg/kg/injection, schedule: Q01DX009 (ip), vehicle: saline with Tween-80, higher = longer survival
# [4] = endpoint: median survival time, dose: 12.5 mg/kg/injection, schedule: Q01DX009 (ip), vehicle: saline with Tween-80, higher = longer survival
compound,measurement,setting,value
O=C(O)c1ccc(-c2ccccc2)cc1,T/C,"endpoint: mean tumor weight, dose: 60.0 mg/kg/injection, schedule: Q01DX011 (ip), vehicle: carboxymethylcellulose (CMC), higher = larger tumour",61 % of control
same,T/C,"endpoint: mean tumor weight, dose: 90.0 mg/kg/injection, schedule: Q01DX011 (ip), vehicle: carboxymethylcellulose (CMC), higher = larger tumour",80 % of control
same,T/C,"endpoint: mean tumor weight, dose: 135.0 mg/kg/injection, schedule: Q01DX011 (ip), vehicle: carboxymethylcellulose (CMC), higher = larger tumour",65 % of control
same,T/C,[1],33 % of control and 42 % of control
O=NN(CCCl)C(=O)N[C@H]1CCC[C@@H](C(=O)O)C1,T/C,"endpoint: median survival time, dose: 14.0 mg/kg/injection, schedule: Q01DX001 (ip), vehicle: Klucel (hydroxypropylcellulose) (HPC), higher = longer survival",88 % of control
same,T/C,"endpoint: median survival time, dose: 32.0 mg/kg/injection, schedule: Q01DX001 (ip), vehicle: Klucel (hydroxypropylcellulose) (HPC), higher = longer survival",93 % of control
COc1cc(C2c3cc4c(cc3CC3COC(=O)C32)OCO4)cc(OC)c1O (configuration not stated),T/C,"endpoint: median survival time, dose: 0.5 mg/kg/injection, schedule: Q01DX009 (ip), vehicle: saline with Tween-80, higher = longer survival",104 % of control
same,T/C,"endpoint: median survival time, dose: 1.0 mg/kg/injection, schedule: Q01DX009 (ip), vehicle: saline with Tween-80, higher = longer survival",101 % of control
same,T/C,"endpoint: median survival time, dose: 2.0 mg/kg/injection, schedule: Q01DX009 (ip), vehicle: saline with Tween-80, higher = longer survival",107 % of control
COC1C(O)=C2C(=O)OC(C)(O)/C=C/C=C\C=C/C=C/C(c3ccccc3)NC(=O)/C=C/C=C/C=C/C=C/C2(C)C1O (configuration not stated),T/C,"endpoint: median survival time, dose: 0.12 mg/kg/injection, schedule: Q01DX009 (ip), vehicle: saline, higher = longer survival",92 % of control
same,T/C,"endpoint: median survival time, dose: 0.25 mg/kg/injection, schedule: Q01DX009 (ip), vehicle: saline, higher = longer survival",95 % of control
same,T/C,"endpoint: median survival time, dose: 0.5 mg/kg/injection, schedule: Q01DX009 (ip), vehicle: saline, higher = longer survival",100 % of control
same,T/C,"endpoint: median survival time, dose: 0.62 mg/kg/injection, schedule: Q01DX009 (ip), vehicle: saline, higher = longer survival",113 % of control
same,T/C,[2],91 % of control
CS(=O)(=O)OCCC(=O)N1CCN(C(=O)CCOS(C)(=O)=O)CC1,T/C,"endpoint: mean tumor weight, dose: 12.5 mg/kg/injection, schedule: Q01DX011 (ip), vehicle: saline, higher = larger tumour",85 % of control
same,T/C,"endpoint: mean tumor weight, dose: 25.0 mg/kg/injection, schedule: Q01DX011 (ip), vehicle: saline, higher = larger tumour",66 % of control
same,T/C,"endpoint: mean tumor weight, dose: 50.0 mg/kg/injection, schedule: Q01DX011 (ip), vehicle: saline, higher = larger tumour",85 % of control
same,T/C,"endpoint: mean tumor weight, dose: 100.0 mg/kg/injection, schedule: Q01DX011 (ip), vehicle: saline, higher = larger tumour",46 % of control
same,T/C,"endpoint: median survival time, dose: 1.56 mg/kg/injection, schedule: Q01DX009 (ip), vehicle: saline, higher = longer survival",109 % of control
same,T/C,"endpoint: median survival time, dose: 3.12 mg/kg/injection, schedule: Q01DX009 (ip), vehicle: saline, higher = longer survival",103 % of control
same,T/C,"endpoint: median survival time, dose: 6.25 mg/kg/injection, schedule: Q01DX009 (ip), vehicle: saline, higher = longer survival",106 % of control
same,T/C,"endpoint: median survival time, dose: 12.5 mg/kg/injection, schedule: Q01DX009 (ip), vehicle: saline, higher = longer survival",103 % of control
same,T/C,"endpoint: median survival time, dose: 25.0 mg/kg/injection, schedule: Q01DX009 (ip), vehicle: saline, higher = longer survival",102 % of control
same,T/C,"endpoint: median survival time, dose: 50.0 mg/kg/injection, schedule: Q01DX009 (ip), vehicle: saline, higher = longer survival",114 % of control
CS(=O)(=O)OCCCCOS(C)(=O)=O,T/C,"endpoint: mean tumor weight, dose: 12.5 mg/kg/injection, schedule: Q01DX011 (ip), vehicle: carboxymethylcellulose (CMC), higher = larger tumour",91 % of control and 104 % of control
same,T/C,"endpoint: median survival time, dose: 10.0 mg/kg/injection, schedule: Q01DX009 (ip), vehicle: Klucel (hydroxypropylcellulose) (HPC), higher = longer survival",94 % of control
same,T/C,"endpoint: median survival time, dose: 10.0 mg/kg/injection, schedule: Q01DX009 (ip), vehicle: saline with Tween-80, higher = longer survival",100 % of control
same,T/C,"endpoint: median survival time, dose: 20.0 mg/kg/injection, schedule: Q01DX009 (ip), vehicle: saline with Tween-80, higher = longer survival",93 % of control
same,T/C,"endpoint: median survival time, dose: 40.0 mg/kg/injection, schedule: Q01DX009 (ip), vehicle: Klucel (hydroxypropylcellulose) (HPC), higher = longer survival",92 % of control
same,T/C,"endpoint: median tumor weight (est.), dose: 10.0 mg/kg/injection, schedule: Q01DX009 (ip), vehicle: saline with Tween-80, higher = larger tumour",86 % of control
same,T/C,"endpoint: median tumor weight (est.), dose: 20.0 mg/kg/injection, schedule: Q01DX009 (ip), vehicle: saline with Tween-80, higher = larger tumour",80 % of control
same,T/C,"endpoint: median tumor weight (est.), dose: 40.0 mg/kg/injection, schedule: Q01DX009 (ip), vehicle: saline with Tween-80, higher = larger tumour",45 % of control
IP(c1ccccc1)(c1ccccc1)(c1ccccc1)N1C2CCCCC21 (configuration not stated),T/C,"endpoint: median survival time, dose: 0.3 mg/kg/injection, schedule: Q01DX009 (ip), vehicle: Klucel (hydroxypropylcellulose) (HPC), higher = longer survival",94 % of control
same,T/C,"endpoint: median survival time, dose: 0.6 mg/kg/injection, schedule: Q01DX009 (ip), vehicle: Klucel (hydroxypropylcellulose) (HPC), higher = longer survival",103 % of control
same,T/C,"endpoint: median survival time, dose: 38.0 micrograms/kg/injection, schedule: Q01DX009 (ip), vehicle: Klucel (hydroxypropylcellulose) (HPC), higher = longer survival",94 % of control
same,T/C,"endpoint: median survival time, dose: 75.0 micrograms/kg/injection, schedule: Q01DX009 (ip), vehicle: Klucel (hydroxypropylcellulose) (HPC), higher = longer survival",91 % of control
same,T/C,"endpoint: median survival time, dose: 150.0 micrograms/kg/injection, schedule: Q01DX009 (ip), vehicle: Klucel (hydroxypropylcellulose) (HPC), higher = longer survival",104 % of control
same,T/C,"endpoint: median survival time, dose: 300.0 micrograms/kg/injection, schedule: Q01DX009 (ip), vehicle: Klucel (hydroxypropylcellulose) (HPC), higher = longer survival",91 % of control
COC(CCC(C)C1OC23CC(OC(=O)CC(C(C)O)OC(=O)CC(O)(O2)C(C)CC3(C)C)C1C)c1cccc(O)c1 (configuration not stated),T/C,"endpoint: median survival time, dose: 25.0 micrograms/kg/injection, schedule: Q01DX009 (ip), vehicle: other, higher = longer survival",88 % of control
same,T/C,"endpoint: median survival time, dose: 50.0 micrograms/kg/injection, schedule: Q01DX009 (ip), vehicle: other, higher = longer survival",101 % of control
same,T/C,"endpoint: median survival time, dose: 100.0 micrograms/kg/injection, schedule: Q01DX009 (ip), vehicle: other, higher = longer survival",111 % of control
CCCNC1=C(N2CC2)C(=O)C(NCCC)=C(N2CC2)C1=O,T/C,[2],102 % of control
same,T/C,"endpoint: median survival time, dose: 5.0 mg/kg/injection, schedule: Q01DX009 (ip), vehicle: saline, higher = longer survival",112 % of control
same,T/C,"endpoint: median survival time, dose: 10.0 mg/kg/injection, schedule: Q01DX009 (ip), vehicle: saline, higher = longer survival",114 % of control
Nc1ncc(CNc2ccc(C(=O)NC(CCC(=O)O)C(=O)O)cc2)c(N)n1 (configuration not stated),T/C,"endpoint: median survival time, dose: 50.0 mg/kg/injection, schedule: Q01DX009 (ip), vehicle: Klucel (hydroxypropylcellulose) (HPC), higher = longer survival",94 % of control
same,T/C,"endpoint: median survival time, dose: 100.0 mg/kg/injection, schedule: Q01DX009 (ip), vehicle: Klucel (hydroxypropylcellulose) (HPC), higher = longer survival",100 % of control
same,T/C,"endpoint: median survival time, dose: 400.0 mg/kg/injection, schedule: Q01DX009 (ip), vehicle: Klucel (hydroxypropylcellulose) (HPC), higher = longer survival",117 % of control
Nc1nc(SCc2ccc([N+](=O)[O-])cc2)c2[nH]cnc2n1,T/C,"endpoint: mean tumor weight, dose: 125.0 mg/kg/injection, schedule: Q01DX011 (ip), vehicle: other, higher = larger tumour",98 % of control
same,T/C,"endpoint: mean tumor weight, dose: 250.0 mg/kg/injection, schedule: Q01DX011 (ip), vehicle: other, higher = larger tumour",75 % of control
same,T/C,"endpoint: mean tumor weight, dose: 500.0 mg/kg/injection, schedule: Q01DX011 (ip), vehicle: other, higher = larger tumour",80 % of control
same,T/C,"endpoint: mean tumor weight, dose: 1000.0 mg/kg/injection, schedule: Q01DX011 (ip), vehicle: other, higher = larger tumour",36 % of control
N#CCCN(Cc1ccccc1)C(N)=O,T/C,"endpoint: mean tumor weight, dose: 0.5 mg/kg/injection, schedule: Q01DX011 (ip), vehicle: other, higher = larger tumour",73 % of control
same,T/C,"endpoint: mean tumor weight, dose: 1.0 mg/kg/injection, schedule: Q01DX011 (ip), vehicle: other, higher = larger tumour",68 % of control
same,T/C,"endpoint: mean tumor weight, dose: 2.0 mg/kg/injection, schedule: Q01DX011 (ip), vehicle: other, higher = larger tumour",48 % of control
same,T/C,"endpoint: mean tumor weight, dose: 4.0 mg/kg/injection, schedule: Q01DX011 (ip), vehicle: other, higher = larger tumour",55 % of control
O=NN(CCCl)C(=O)NC1CCC(CC2CCC(NC(=O)N(CCCl)N=O)CC2)CC1 (configuration not stated),T/C,"endpoint: median tumor weight (est.), dose: 46.0 mg/kg/injection, schedule: Q01DX001 (ip), vehicle: gum acacia, higher = larger tumour",80 % of control
same,T/C,"endpoint: median tumor weight (est.), dose: 93.0 mg/kg/injection, schedule: Q01DX001 (ip), vehicle: gum acacia, higher = larger tumour",76 % of control
same,T/C,"endpoint: median tumor weight (est.), dose: 187.0 mg/kg/injection, schedule: Q01DX001 (ip), vehicle: gum acacia, higher = larger tumour",55 % of control
same,T/C,"endpoint: median tumor weight (est.), dose: 250.0 mg/kg/injection, schedule: Q01DX001 (ip), vehicle: gum acacia, higher = larger tumour",10 % of control
same,T/C,"endpoint: median tumor weight (est.), dose: 375.0 mg/kg/injection, schedule: Q01DX001 (ip), vehicle: gum acacia, higher = larger tumour",3 % of control
Cc1cc(C)nc(NS(=O)(=O)c2ccc(N=Nc3nc4[nH]c(N)nc(=S)c4[nH]3)cc2)n1,T/C,"endpoint: median survival time, dose: 0.78 mg/kg/injection, schedule: Q01DX009 (ip), vehicle: Klucel (hydroxypropylcellulose) (HPC), higher = longer survival",96 % of control
same,T/C,"endpoint: median survival time, dose: 1.56 mg/kg/injection, schedule: Q01DX009 (ip), vehicle: Klucel (hydroxypropylcellulose) (HPC), higher = longer survival",108 % of control
O=C(NC(Cc1ccccc1)C(=O)CCl)OCc1ccccc1 (configuration not stated),T/C,"endpoint: median survival time, dose: 3.12 mg/kg/injection, schedule: Q01DX009 (ip), vehicle: saline with Tween-80, higher = longer survival",107 % of control
same,T/C,[3],87 % of control
same,T/C,[4],94 % of control
O=C(O)CCC(=O)Nc1nccs1,T/C,"endpoint: mean tumor weight, dose: 50.0 mg/kg/injection, schedule: Q01DX011 (ip), vehicle: carboxymethylcellulose (CMC), higher = larger tumour",77 % of control
same,T/C,"endpoint: mean tumor weight, dose: 100.0 mg/kg/injection, schedule: Q01DX011 (ip), vehicle: carboxymethylcellulose (CMC), higher = larger tumour",83 % of control
same,T/C,[1],68 % of control
same,T/C,"endpoint: mean tumor weight, dose: 400.0 mg/kg/injection, schedule: Q01DX011 (ip), vehicle: carboxymethylcellulose (CMC), higher = larger tumour",101 % of control
O=NN(CCCl)C(=O)Nc1ccc2c(c1)OCO2,T/C,"endpoint: median survival time, dose: 3.13 mg/kg/injection, schedule: Q01DX009 (ip), vehicle: saline with Tween-80, higher = longer survival",98 % of control
same,T/C,[3],116 % of control
same,T/C,[4],102 % of control
